In patent US20240065261A1, “PENETRATING CRYOPROTECTION AGENTS AND METHODS OF MAKING AND USING SAME” (The Research Foundation for The State University of New York, priority 2020, published 2024):
Where “and” joins values, the source holds several entries; their conditions need not be identical. Identical values can stand only once.

Assays:
3T3 cells [1] = experiment: Cytotoxicity by CCK-8 kit, Example 3; type: cell-based; conditions: 48 hours
Procedure: Cytotoxicity: Cytotoxicity of EGL-3Pro and EGL-3Phe were tested by CCK-8 kit on 3T3 cells after incubating for 48 hours at different concentrations.

Water solubility = type: physicochemical; conditions: pH 7.4, aqueous buffer
3T3 cells [2] = experiment: Cryopreservation, post-thaw recovery rate, Example 3; type: cell-based; conditions: frozen −80° C. in medium with 400 mM trehalose
Procedure: Cryopreservation: The cryopreservation effects of EGL-3Pro and EGL-3Phe were tested on 3T3 cells. The cells were incubated with 5 mM or 10 mM EGL-3Pro or 0.5 mM EGL-3Phe or medium only (two control groups) for 72 hours. After incubation, the cells were detached by treating […] pelleted by centrifuging (200×g). The cells were then resuspended in medium with 400 mM trehalose or 5% DMSO (for control 2 group) in cryovials and a small portion of cell suspension were used for counting pre-freeze cell number. The vials were directly put in −80° C. freezer and stored for at least 3 days. The cells were thawed in 37° C. water bath until ice melt, and resuspended in 10 mL fresh medium and pelleted by centrifuging (200×g). The cells were then resuspended in 1 mL fresh medium and counted by cell counter. The recovery rate was obtained by dividing post-thaw lived cell number by pre-freeze lived cell number.

NIH-3T3 cells [3] = experiment: Cell size measurement after incubation with diesters; type: cell-based; conditions: 10 mM, 48 h incubation (FIG. 11)
Procedure: Incubation (for cell size measurement). NIH/3T3 cells were seeded into 6-well plates at a density of 5×10^4 cells/mL (2 mL/well), allowed to adhere overnight and then incubated with different sample solutions (2 mL) for 48 hours at 37° C. under 5% CO2. Control cells were incubated with culture medium.
Cell size measurement. At the end of the incubation, the cells were rinsed with PBS (1 mL) and detached by 0.25% trypsin-EDTA (1 mL). The cells were pelleted (200×g, 5 min) and resuspended in PBS (1 mL). The average cell size of the cell suspension was then obtained with a DeNovix Celldrop cell counter. Bright field/counted image and histogram for one count were attached as an example (FIG. 19). Average cell diameter and statistical analysis were obtained from the histograms.

NIH-3T3 cells [4] = experiment: Cell growth curve; type: cell-based; conditions: 10 mM, incubated for up to 72 hrs (FIG. 17)
Procedure: Cell growth curve. NIH/3T3 cells were seeded into 6-well plates at a density of 5×10^4 cells/mL (2 mL/well), allowed to adhere overnight and then incubated with different sample solutions (2 mL) up to 72 hours at 37° C. under 5% CO2. Control cells were incubated with culture medium. After certain time incubation, cells were rinsed with PBS (1 mL), detached by 0.25% trypsin-EDTA (1 mL), pelleted (200×g, 5 min) and resuspended in PBS (1 mL). The cell number were obtained by a DeNovix Celldrop cell counter. The 0 hour was set as the time point just after overnight adhering.

NIH-3T3 cells [5] = experiment: Post-thaw total cell recovery of cryopreserved cells (trypan blue exclusion); type: cell-based; conditions: for Total recovery values compared with cells frozen in media containing 5% DMSO: incubated with 10 mM; for Post-thaw recovery (%) 0-hr / Post-thaw recovery (%) 24-hr / Post-thaw recovery (%) 48-hr: incubated with 10 mM for 48 h, frozen −80° C. 72 h in media with 400 mM trehalose, ±SEM
Procedure: The delivery of sugar alcohols into cells makes it possible to turn these molecules into intracellular CPAs. […] Total post-thaw cell recovery, defined as the ratio (%) of post-thaw live cells to the number of initially frozen live cells, which provides a more accurate measure of cryoprotective outcome than cell viability, was used to assess the cryoprotective effects of the diesters.
Systematic studies were then performed by incubating the cells (1) with each of diesters 1-4 (10 mM), (2) with unmodified sorbitol, mannitol, xylitol, or erythritol (10 mM), and (3) in medium without any of the diesters or sugar alcohols, at 37° C. for 48 h. The cells treated with diesters 1-4 and the four sugar alcohols were then transferred to freezing media consisting of DMEM, 10% FBS and 400 mM trehalose. The cells incubated with only the medium were divided into two portions, one being directly transferred to the freezing medium containing 400 mM trehalose (control 1) and the other being placed in a different freezing medium consisting of DMEM, 10% FBS and 5% DMSO but without trehalose (control 2). After being frozen at −80° C. for 72 h, the cells were thawed in a warm water bath at 37° C. until ice melted. The post-thaw cells were either immediately analyzed for their survival or were cultured in growth media (DMEM with 10% FBS) for 24 h and 48 h before being analyzed.
Incubation (for cryopreservation). NIH/3T3 cells were seeded into cell culture treated plates (100 mm) at a density of 2×10^4 cells/mL (10 mL/plate), allowed to adhere overnight and then incubated with different sample solutions (10 mL) for 48 hours at 37° C. under 5% CO2. Control cells were incubated with growth medium.
Cryopreservation. At the end of the incubation, the cells were rinsed with PBS (2 mL) and detached using 0.25% trypsin-EDTA (3 mL). The cells were pelleted (200×g, 5 min) and resuspended in growth medium with 400 mM trehalose except for the control-2 group. For control-2 group, cells were resuspended in growth medium with 5% DMSO (v/v). An aliquot of cells of each group was then removed for counting by a DeNovix Celldrop cell counter to obtain prefreeze number of viable cells. The remaining cell suspension was transferred into a 2 mL cryogenic vial. The vials were directly transferred to −80° C. freezer without controlling cooling rate and stored at −80° C. freezer for 3 days. To thaw, cryogenic vials were removed from −80° C. freezer and suspended in a 37° C. water bath until ice melt. To the contents of each vial 1 mL growth medium was added and centrifuged (200×g , 5 min). The supernatant was discarded and cell pellet was resuspended in 1 mL growth cell medium. An aliquot of cell suspension of each group was then removed for counting with a DeNovix Celldrop cell counter to obtain the number of viable cells at 0-hr post-thaw. The remaining cell suspension was split equally and resuspended into two cell culture treated plates (100 mm) with 10 mL growth medium in each plate. The plates were then maintained for either 24 hours or 48 hours at 37° C. under 5% CO2. After being cultured for either 24 hours or 48 hours, the cells were rinsed with PBS (2 mL) and detached using 0.25% trypsin-EDTA (3 mL). The cells were pelleted (200×g, 5 min) and resuspended in growth medium. The cell suspension was then analyzed by DeNovix Celldrop cell counter to obtain number of viable cells at either 24-hr or 48-hr post-thaw.
Trypan Blue Exclusion Assay. For all time points, a sample of cells was mixed 1:1 in 0.4% trypan blue and counted using a DeNovix Celldrop. Cell recovery was calculated as the ratio of viable cells to the number of cells initially frozen.

NIH-3T3 cells [6] = experiment: Live/dead fluorescence microscopy of post-thaw cells (calcein-AM / ethidium homodimer-1); type: cell-based; conditions: 24 h post-thaw; incubated with 10 mM for 48 h, frozen in media with 400 mM trehalose (FIG. 14)
Procedure: DIC and Fluorescence images capturing. NIH/3T3 cells were treated as the same as for cryopreservation experiment and were thawed in a 37° C. water bath until ice melt. Cells in each vial were then pelleted (200×g, 5 min), re-suspended in 1 mL fresh growth medium and plated into 96 well plate and grown for 24 hours. Each well was washed with sterile PBS (100 μL). Sterile PBS (200 μL) containing 2 μM calcein-AM and 4 μM ethidium homodimer-1 (EthD-1) was then added to each well. The 96-well plate was then incubated in a CO2 incubator at 37° C. for 30 min. Fresh cells without freezing were plated at similar density in 96-well plate as comparison. DIC and fluorescence microscopy images were captured at 509 and 580 nm on Axioplan 2 fluorescent microscope (Zeiss [Carl Zeiss], Thornwood, NY) with an Axiocam MRm camera (Zeiss). Axiovision 4 software (Zeiss) was used for image acquisition. Digital images were processed with ImageJ (imagej.nih.gov/ij/).

NIH-3T3 cells [7] = experiment: Post-thaw viability of cryopreserved NIH-3T3 cells (CCK-8), Example 1; type: cell-based; conditions: Table 3, frozen −80° C. 72 hours, 400 mM trehalose, 10% DMSO set as 100%
Procedure: Cryopreservation protocol. […] Discarded 95% of the old media and added 0.5 mL new DMEM (pH=7.4) with 10% FBS and 400 mM trehalose (filtered with 0.22 μm filter) and re-suspended the cells. • Transferred the cell culture to cryo-tube and stored the tubes at −80° C. for 3 days. • Thawed the cells at 37° C. in a water bath until ice melted. • Counted the cell density in each cryo-tube with cell counter. • Re-cultured the cells in 96-well plate with fresh DMEM (PH=7.4) with 10% FBS. (while keeping cell density the approximately the same for each well). • Used CCK-8 kit to test the post-thaw viability after certain time.

NIH-3T3 cells [8] = experiment: Post-thaw total cell recovery of cryopreserved cells (trypan blue exclusion); type: cell-based; conditions: incubated with 5 and 10 mM; frozen in media with 400 mM trehalose (FIG. 12)
[9] = incubated 36 hours at 5 mM without DMSO
[10] = incubated 36 hours at 10 mM without DMSO

SMILES	Cytotoxicity (3T3 cells [1]; above 1 mM)	Cytotoxicity (3T3 cells [1]; at 0.1 mM)	Cytotoxicity (3T3 cells [1]; at 0.5 mM)	solubility (Water solubility)	0-hour post thaw recovery (%) (3T3 cells [2]; incubated with 0.5 mM for 72 hours)	Cytotoxicity (3T3 cells [1]; up to 10 mM)	0-hour post thaw recovery (%) (3T3 cells [2]; incubated with 5 mM for 72 hours)	0-hour post thaw recovery (%) (3T3 cells [2]; incubated with 10 mM for 72 hours)	Average cell diameter relative to cells incubated with only the culture medium (NIH-3T3 cells [3])	Growth of cells relative to control (NIH-3T3 cells [4])	Total recovery values compared with cells frozen in media containing 5% DMSO (NIH-3T3 cells [5])	Post-thaw recovery (%) 0-hr (NIH-3T3 cells [5])	Post-thaw recovery (%) 24-hr (NIH-3T3 cells [5])	Post-thaw recovery (%) 48-hr (NIH-3T3 cells [5])	Post-thaw viability/recovery in fluorescence microscopy images (NIH-3T3 cells [6])	Post-thaw viability (%), 24 hours post thaw (NIH-3T3 cells [7]; [9])	Post-thaw viability (%), 48 hours post-thaw (NIH-3T3 cells [7]; [9])	Post-thaw viability (%), 24 hours post thaw (NIH-3T3 cells [7]; [10])	Post-thaw viability (%), 48 hours post-thaw (NIH-3T3 cells [7]; [10])	Post-thaw 0 h and 48 h total recovery rates compared with cells incubated only with the media (NIH-3T3 cells [8])
N[C@@H](Cc1ccccc1)C(=O)OCC(COC(=O)[C@@H](N)Cc1ccccc1)OC(=O)[C@@H](N)Cc1ccccc1 [EGL-3Phe]	apparent cytotoxicity	no toxicity	residual cytotoxicity	≤ 2 mM	66.2 ± 10.1%	–	–	–	–	–	–	–	–	–	–	–	–	–	–	–
O=C(OCC(COC(=O)[C@@H]1CCCN1)OC(=O)[C@@H]1CCCN1)[C@@H]1CCCN1 [EGL-3Pro]	–	–	–	≥ 10 mM	–	didn't show any toxicity	50.1 ± 6.6%	65.3 ± 7.3%	–	–	–	–	–	–	–	–	–	–	–	–
CCC(=O)OC[C@@H](O)[C@@H](O)[C@H](O)[C@H](O)COC(=O)CC [MannPr2]	–	–	–	–	–	–	–	–	small but statistically significant increases	slightly suppressed	the same as those seen with 5% DMSO	84% and 84.1 ± 3.3%	73.6 ± 3.2%	184% and 184.1 ± 14.2%	much higher recovery than those treated with mannitol or sorbitol	–	–	–	–	–
CCC(=O)OC[C@@H](O)[C@@H](O)[C@H](O)[C@@H](O)COC(=O)CC [SorbPr2]	–	–	–	–	–	–	–	–	small but statistically significant increases	slightly suppressed	comparable to those obtained with cells frozen in media containing 5% DMSO	72.4 ± 3.4%	65.2 ± 2.2%	153.2 ± 8.0%	much higher recovery than those treated with mannitol or sorbitol	94.5 ± 9.1%	130.1 ± 6.8%	128.9 ± 2.5%	183.0 ± 2.9%	above those of cells incubated only with the media
